Earlier results as cited in patent US10010615B2 (KemPharm, Inc., priority 2009, dated 2018).

Experiments:
human NET = human NET (Homo sapiens, UniProt P23975); conditions: relative to quetiapine
leptin = conditions: chronic oral administration for 6 weeks

Sequence of human NET (P23975 whole entry): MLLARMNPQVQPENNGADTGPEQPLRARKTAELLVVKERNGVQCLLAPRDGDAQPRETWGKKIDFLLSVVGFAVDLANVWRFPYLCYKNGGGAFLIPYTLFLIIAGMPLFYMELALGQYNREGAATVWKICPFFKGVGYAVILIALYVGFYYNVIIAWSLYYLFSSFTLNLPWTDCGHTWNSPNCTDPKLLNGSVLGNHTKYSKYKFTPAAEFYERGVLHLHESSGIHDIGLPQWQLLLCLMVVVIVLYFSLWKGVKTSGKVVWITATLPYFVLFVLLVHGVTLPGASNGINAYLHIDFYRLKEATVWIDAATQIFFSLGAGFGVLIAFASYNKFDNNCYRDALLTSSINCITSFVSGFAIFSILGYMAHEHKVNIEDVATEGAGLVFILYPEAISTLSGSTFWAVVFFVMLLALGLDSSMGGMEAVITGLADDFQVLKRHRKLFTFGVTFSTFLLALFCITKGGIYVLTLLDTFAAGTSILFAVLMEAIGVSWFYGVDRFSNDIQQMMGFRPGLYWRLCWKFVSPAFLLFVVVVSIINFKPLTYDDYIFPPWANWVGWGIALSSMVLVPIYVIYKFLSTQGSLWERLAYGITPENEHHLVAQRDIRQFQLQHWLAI

Compound | higher avidity for inhibiting human NET than quetiapine (human NET) | increase in leptin release (leptin)
c1ccc2c(c1)N=C(N1CCNCC1)c1ccccc1S2 [N-desalkyl-quetiapine, 4-(dibenzo[b,f][1,4]thiazepin-11-yl)piperazine] | about 100 fold | –
OCCOCCN1CCN(C2=Nc3ccccc3Sc3ccccc32)CC1 [quetiapine, 2-(2-(4-(dibenzo[b,f][1,4]thiazepin-11-yl)piperazin-1-yl)ethoxy)ethanol] | – | about 37%
